Structures are written as SMILES. Activity calls are given as the source filed them. How the calls were made is not given here.

The assay deals with S. cerevisiae tim10-1 mutant growth, luminescence. As to the kind of experiment: growth inhibitors of tim10-1 mutant yeast, dose response, luminescence, S. cerevisiae, uHTS hits (AID 493003).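 Further: yeast growth measured after about 22 hours at 25 °C.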
Consider `CCCCCc1ccc(OCCCC[n+]2ccccc2)c(CCCCC)c1`, for which the IC50 is 24.8 µM.
Take `Cc1cc(C)cc(OCC(=O)N2N=C(C(F)(F)F)CC2(O)C(C)(C)C)c1` (configuration not stated): the IC50 is 77.8 µM.
As to `CCOC(=O)Cc1nnc2c(Nc3ccc(Cl)cc3)nc3nonc3n12`, the IC50 is 41.1 µM.
On to `N/C(=C\C(=O)c1cc(Cl)ccc1O)C(Cl)(Cl)Cl`, for which the IC50 was 47.3 µM.
As for `NC(=S)N/N=C/c1ccccc1OCCSc1ccc(Cl)cc1`, the IC50 is 74.7 µM.
On to `N/C(=N\OC(=O)CCCc1ccccc1)c1ccccc1`, for which the IC50 was 19.9 µM.
Take `O=C(CSCC(=O)OCn1nnc2ccccc2c1=O)Nc1ccc(Cl)cc1`: the IC50 was 20.2 µM.
`CC(C)(C)NC(=O)NC(=O)COC(=O)CCC1CCCCC1`: the IC50 was 69 µM.
In the case of `N/C(=N\OC(=O)CCCc1ccccc1)c1ccccc1Cl`, the half-inhibitory concentration (IC50) is 16.4 µM.
On to `C=CCNC(=S)NNc1nc2c(c(=O)[nH]1)C1(CCCC1)Cc1ccccc1-2`, for which the IC50 was 27.7 µM.
Under `COC(=O)c1c(N2C(=O)CC(Sc3ccccc3C(=O)O)C2=O)sc2c1CCCC2` (configuration not stated) stands 12.2 µM.
`CCC(CO)Nc1nc2ccc(Cl)cc2c2ccccc12` (configuration not stated): the IC50 is 17 µM.
For `CC(C)(C)OC(=O)N[C@@H](Cc1ccccc1)c1nnc(S(=O)(=O)Cc2cccc(F)c2)o1`, the IC50 is 5.87 µM.
As for `Cc1cc(Nc2ccccc2Cl)nc(-c2ccccc2O)n1`, the IC50 was 33.2 µM.
Regarding `CC1CCN(c2ccccc2NC(=S)NC(=O)C(C)(C)C)CC1`, the IC50 is 75.8 µM.
`O=C(Nc1ccc(OCC(F)(F)C(F)F)c(C(F)(F)F)c1)c1ccc(Cl)cc1`: the IC50 is 52.8 µM.
In the case of `Cn1c(/C=C/c2ccc([N+](=O)[O-])o2)nc2ccccc2c1=O`, the IC50 is 7.3 µM.
With `Cc1cccc(C2=NNC(=O)C(c3ccc(Cl)cc3)C2)c1` (configuration not stated), the IC50 is 34 µM.
Under `O=C(NC(=S)Nc1ccccc1N1CCCC1)c1ccc([N+](=O)[O-])cc1` stands 14 µM.
Under `CC(C)(C)c1ccc(C(=O)c2cn[nH]c2-c2ccccc2O)cc1` stands 52 µM.
As to `CC(CNC(=O)COc1ccccc1)OC(=O)Nc1ccc(Cl)c(Cl)c1` (configuration not stated), the concentration for half-maximal inhibition (IC50) was 20.2 µM.
With `Cc1c(C(=O)N2CCN(c3ccc(C(F)(F)F)cn3)CC2)oc2ccccc12`, the IC50 is 41.6 µM.
On to `C=CCc1cccc(CNc2ccc(Br)cc2)c1O`, for which the IC50 is 21.8 µM.
As to `CSc1ccc2nnc(-c3cccc(F)c3)n2n1`, the IC50 was 29.6 µM.
Under `CN(C)CCCN(C(=O)c1ccc(S(=O)(=O)N2CCc3ccccc3C2)cc1)c1nc2c(F)cc(F)cc2s1` stands 35.2 µM.
Consider `CCOC(=O)c1c(CSc2ccc(C)cc2)n(C)c2cc(Br)c(O)c(CN(C)C)c12`, for which the IC50 was 15.9 µM.
With `CC1(CC(=O)N/N=C/c2ccc(OCc3ccc(Cl)cc3Cl)cc2)OCCCO1`, the IC50 was 5.77 µM.
In the case of `CCNC(=S)N/N=C/c1ccc(-c2ccccc2)o1`, the IC50 is 34.8 µM.
`S=C(NCCc1ccccc1)Nc1ccc(Nc2ccccc2)cc1`: the IC50 is 24.7 µM.
With `O=C(Nc1cccc(C(F)(F)F)c1)c1cccnc1NCCc1ccccc1`, the IC50 was 46.6 µM.
For the compound `Cc1ccc2nc(N3CCN(Cc4nnnn4Cc4ccccc4)CC3)c(C#N)cc2c1`, the IC50 is 81.3 µM.
As to `Nc1cccc(Nc2nc(OC(C(F)(F)F)C(F)(F)F)nc(OC(C(F)(F)F)C(F)(F)F)n2)c1`, the concentration for half-maximal inhibition (IC50) was 39.6 µM.
Consider `O=C(Nc1ccon1)c1cc2c(s1)CCCCCC2`, for which the IC50 was 39.2 µM.
As for `O=C1CC(N2CCCCCC2)C(=O)N1c1ccc(F)cc1` (configuration not stated), the IC50 was 13.9 µM.
For the compound `O=C1CC(Sc2cccs2)C(=O)N1c1ccccc1` (configuration not stated), the half-inhibitory concentration (IC50) is 30.7 µM.
For `Oc1ccc(-c2nccc(-c3ccc(F)cc3)n2)cc1`, the IC50 was 50.3 µM.
Take `Cc1cc([N+](=O)[O-])ccc1-c1ccc(C2Nc3ccccc3C(=O)N2O)o1` (configuration not stated): the IC50 was 12.4 µM.
Under `N/C(=N\OC(=O)CCCc1ccccc1)c1ccc([N+](=O)[O-])cc1` stands 28.5 µM; under `Cc1oc2c(Cl)c(Cl)c(O)c(CN(C)C)c2c1C(=O)c1ccc(Cl)cc1`, 18.6 µM; under `Cc1ccc(NC(=S)NCc2ccc3[nH]c4c(c3c2)CCCC4)cc1`, 22.1 µM.
On to `Nc1nc(-c2ccc(Br)s2)c(Br)s1`, for which the IC50 was 23.5 µM.
As for `O=C(Nc1cccc(C(=O)N2CCN(c3cccc(Cl)c3)CC2)c1)c1ccccc1`, the IC50 was 35.2 µM.
Under `Cc1cccc(/C=C2\Oc3cc(OS(C)(=O)=O)ccc3C2=O)c1` stands 31.9 µM; under `O=C(O)c1ccc(C=C(c2nc3ccccc3s2)c2nc3ccccc3s2)cc1`, > 100 µM (inactive).
For the compound `CNC(=O)c1nnsc1S(=O)(=O)c1ccc(Cl)cc1`, the IC50 was 16.4 µM.
Under `S=c1[nH]nc(Nc2ccc(Cl)cc2)s1` stands 20.8 µM; under `COc1ccccc1C/C(N)=N/OC(=O)COc1ccccc1C`, 38 µM.
Turning to `CCC(=O)Oc1ccc(-c2nc(-c3cccnc3)no2)cc1`, the IC50 is 43.4 µM.
As to `O=S(=O)(c1ccc2c(c1)OCCO2)N1CCC(O)(c2ccc(Cl)cc2)CC1`, the IC50 is 67.1 µM.
Under `O=C(CNS(=O)(=O)c1c(Cl)cccc1Cl)OCc1csc(-c2ccccc2)n1` stands 41 µM.
On to `COc1ccccc1C(CCNCc1ccccc1)c1ccc(OC(C)C)cc1` (configuration not stated), for which the IC50 was 19.9 µM.
As for `Cc1cc(Cl)ccc1OCC(=O)Nc1nc(-c2cccs2)cs1`, the IC50 is > 100 µM (inactive).
Under `Cc1noc(NS(=O)(=O)c2ccc(NC(=O)Nc3ccc(Cl)c(Cl)c3)cc2)c1C` stands 43.1 µM.
With `Cc1ccc(OCCOc2cccc(Br)c2)c([N+](=O)[O-])n1`, the IC50 is 69.2 µM.
For `O=S(=O)(Nc1ccc(N=Nc2ccccc2)cc1)c1ccccc1`, the IC50 is 35.5 µM.
Under `O=C(Nc1ccc(N2CCN(C(=O)c3ccccc3F)CC2)cc1)c1cncc(Br)c1` stands 41.3 µM.
Under `CC1CCN(C(=O)CCc2ccc(Oc3cc([N+](=O)[O-])cc([N+](=O)[O-])c3)cc2)CC1` stands 50.1 µM.
As for `Cc1ccc(Nc2nc(Cl)nc(N(C)C#N)n2)cc1`, the IC50 is 25.1 µM.
Take `O=C(NC(=S)Nc1cccc(C(F)(F)F)c1)c1csnn1`: the IC50 was 26 µM.
Under `Cc1cccc(NC(=S)N/N=C2/CCCCc3ccccc32)c1` stands 9.98 µM; under `COc1ccc(S(=O)(=O)Nc2ccc(O)c(Sc3nc4ccccc4s3)c2)cc1`, 34.1 µM.
Regarding `COc1ccc(Cl)cc1NC(=S)NCc1ccco1`, the IC50 was 16.2 µM.
Consider `CCSc1nnc(NC(=O)c2nc(-c3ccccc3)n(-c3ccccc3)n2)s1`, for which the IC50 is 25.9 µM.
As for `COc1ccc(N2CCN(C(=O)Nc3cccc(C(F)(F)F)c3)CC2)cc1`, the IC50 is 29.1 µM.
For `CCn1c(CSc2nc3ccccc3s2)n[nH]c1=S`, the IC50 was 49.4 µM.
As for `COc1cccc(N2[C@@H](CC(C)=O)c3ccc(/C=C/C(C)=O)cc3S2(=O)=O)c1`, the IC50 was 18.3 µM.
For `COc1ccc(NC(C)(C)c2nnnn2-c2c(C)cccc2C)cc1`, the IC50 was 36.1 µM.
Turning to `O=C(c1cc(COc2ccc(F)cc2Cl)on1)N1CCN(c2cnccn2)CC1`, the IC50 was 11.7 µM.
Consider `Cn1c(N2CCOCC2)nc(-c2ccccc2)c1-c1ccccc1`, for which the IC50 is 22.9 µM.
For the compound `CCCc1cc(NCC2CCCO2)n2c(nc3ccccc32)c1C#N` (configuration not stated), the IC50 is 26.7 µM.
For `O=C1C=C(NC(=O)Nc2ccc(Cl)c(Cl)c2)CCC1`, the IC50 was 95.6 µM.
For the compound `Cc1ccc(-c2csc3ncnc(Nc4ccc(N5CCOCC5)cc4)c23)cc1`, the IC50 is 53.4 µM.
Under `Cc1cc(N/N=C/c2ccccc2O)nc(-c2ccccc2O)n1` stands 76.6 µM.
Consider `S=C1NC(c2cccs2)=CC(c2ccc(Br)cc2)N1` (configuration not stated), for which the IC50 is 18.1 µM.
Under `Cc1cc(Nc2cccc(F)c2)nc(-c2ccccc2O)n1` stands 64.2 µM.
Under `N/C(Cc1ccc(Cl)cc1Cl)=N\OC(=O)Cc1ccc(Cl)cc1` stands 1.41 µM; under `Cc1cc(C)cc(OCCCOc2cccc3cccnc23)c1`, 32.4 µM; under `CCc1ccc2nc3nc(C)cc(C)c3c(N)c2c1`, 25.1 µM.
Under `Cc1ccc(F)c([C@H]2[C@@H]3C=CCC[C@@]3(C)C(=O)N2Cc2ccccc2)c1` stands 14.6 µM; under `O=[N+]([O-])/C(C(Cl)=C(Cl)Cl)=C(/Sc1ccccc1)N1CCCCC1`, 38.7 µM.
Turning to `CCOC(=O)N1CCN(C(=O)c2ccc(CSc3ccc(Cl)cc3)cc2)CC1`, the IC50 was 74.1 µM.
In the case of `Cc1cccc(NC(=O)c2ccc([N+](=O)[O-])s2)n1`, the 50% inhibitory concentration (IC50) is 6.52 µM.
Under `CSc1ccc(-c2nc3cnccn3c2Nc2ccc3c(c2)OCO3)cc1` stands 59.4 µM.
In the case of `Fc1ccc(-c2csc3ncnc(Nc4ccc(N5CCOCC5)cc4)c23)cc1`, the 50% inhibitory concentration (IC50) was 41.2 µM.
With `CC(C)(C)C1CCc2nc(NC(=O)Cc3cn4ccsc4n3)sc2C1` (configuration not stated), the IC50 is 22.7 µM.
Under `CC(C)(C)c1ccc(CN2N=Nc3ccccc3S2(=O)=O)cc1` stands 6.1 µM.
`CC1=CC(=O)C=C(C)C1=NOC(=O)/C=C\c1ccccc1`: the IC50 was 42.4 µM.
Under `O=C(Cc1ccccc1)N/N=C/c1ccc2cccc(O)c2n1` stands > 100 µM (inactive); under `CCCCc1ccc(NC(=S)Nc2ccc(Nc3ccc(OC)cc3)cc2)cc1`, 12.9 µM; under `COc1ccc(-c2nncnn2)cc1`, 8.84 µM.
Regarding `O=C1CC(SCc2nc3ccccc3[nH]2)C(=O)N1c1ccc(F)c(Cl)c1` (configuration not stated), the IC50 is 32.1 µM.
In the case of `Fc1cc(F)cc(Nc2nc(Cl)nc(NC3CCCC3)n2)c1`, the IC50 is 37.7 µM.
Under `Cc1c(C(=O)N2CCc3ccccc3C2)sc2nc(-c3ccccc3)cn12` stands 37.2 µM; under `COc1ccc(NS(=O)(=O)c2ccc3oc4ccccc4c3c2)cn1`, 28.3 µM.
`Oc1ccccc1-c1csc(-c2ccccc2)n1`: the IC50 is 26.3 µM.
Under `COc1ccc(C(=O)Nc2ccc(-n3nncc3C(C)(C)C)cc2)cc1` stands 16.4 µM; under `Nc1nc(Cl)cc(N2CCC(c3cc(-c4ccc(Cl)cc4)n[nH]3)CC2)n1`, 17.8 µM; under `CCn1nccc1C(=O)Nc1ccc(Cl)c(Cl)c1`, 24.3 µM.
As for `O=C(Oc1ccc(C(=S)N2CCOCC2)cc1)c1ccccc1[N+](=O)[O-]`, the IC50 was 25.4 µM.
Consider `COc1ccc(Cn2c(-c3ccc(Br)cc3)c[n+]3ccccc23)cc1`, for which the IC50 was 37.8 µM.
Under `Cc1nn(-c2ccc(F)cc2)c(C)c1NS(=O)(=O)c1ccc(Cl)cc1` stands 19.9 µM; under `CCCc1cc(-c2nc(-c3ccc(C)cc3)cs2)ccn1`, 49.7 µM.

The term IC50 denotes the midpoint of a concentration-inhibition curve.

Values taken from PubChem BioAssay AID493003 (Sanford-Burnham Center for Chemical Genomics, 2010).
